According to US20180185408A1, “ANTIFUNGAL NYLON-3 POLYMERS AND COMBINATION THERAPY USING THEM TO TREAT FUNGAL INFECTIONS” (priority 2016, published 2018):
≈ marks a conversion by molar mass, not a printed value. Where “and” joins values, the source holds several entries; their conditions need not be identical. Identical values can stand only once. Like-named read-outs stand apart in the source and are kept apart here.

Tests used:
Cryptococcus neoformans = test: Checkerboard microdilution synergy (FIC); details: for FIC / MIC alone / MIC combo: AMB and MM:TM
Aspergillus spp. = test: microbe, parasite or virus in culture
Aspergillus fumigatus = test: Checkerboard microdilution synergy (FIC); type: cell-based; details: for MIC: Aspergillus fumigatus
Aspergillus species = test: MIC100 against 18 species of the Aspergillus genus; type: cell-based, Aspergillus spp.
Description: We assessed the antifungal activity of MM-TM, DM-TM, and NM against 18 different species within the genus Aspergillus.

Trichophyton rubrum = test: MIC100 against dermatophytes (modified CLSI M38-A); type: cell-based; details: ATCC28188; Trichophyton rubrum isolate ATCC 28188
Method: (§1) The final group of fungi tested for sensitivity to nylon-3 polymers were dermatophytes. In contrast to the other filamentous fungi tested, three of these isolates were evaluated following a modified version of the CLSI M38-A methodology (using hyphal fragments in liquid culture, because of difficulties in obtaining conidia). […] Mixed efficacy of the nylon-3 polymers was observed across the four species of dermatophytes tested. […] The activity against P. destructans, the causative agent of White Nose syndrome in bats, and just one of many emerging fungal pathogens threatening wildlife is encouraging because there are few options at present for preventing the spread of this devastating pathogen. The facility with which nylon-3 polymers can be modified could provide opportunities for the development of topical agents with high specificity for particular fungi.

Microsporum canis = test: MIC100 against dermatophytes (modified CLSI M38-A); type: cell-based; details: Microsporum canis isolate UW10
Method: as §1

Trichophyton tonsurans = test: MIC100 against dermatophytes (modified CLSI M38-A); type: cell-based; details: CBS112818; Trichophyton tonsurans isolate CBS 112818
Method: as §1

C. auris = test: MIC100 against yeast (CLSI M27-A3); type: cell-based, Candida auris; details: Candidozyma auris
Cryptococcus amylolentus = test: MIC100 against yeast (CLSI M27-A3); type: cell-based
Saccharomyces cerevisiae = test: MIC100 against yeast (CLSI M27-A3); type: cell-based; details: Saccharomyces cerevisiae W303
[1] = H99, […]10^5 cells/mL, 30°C, OD600 48 h, Avg.
[2] = H99, […]10^5 cells/mL, 30°C, OD600 48 h, trial 1
[3] = H99, […]10^5 cells/mL, 30°C, OD600 48 h, trial 2
[4] = MM:TM (40:60) with Amp B, isolate H99 (Amp B Sensitive), […]10^5 cells/mL, 30° C.
[5] = NM20 with Amp B, isolate H99, […] 10^5 cells/mL
[6] = Table 41, MM:TM with Amp B, isolate H99, […] 10^5 cells/mL
[7] = MM:TM with Itraconazole, isolate F11628 (Resistance), […] 10^5 cells/mL
[8] = MM:TM with Itraconazole, isolate F16216 (Resistance), […] 10^5 cells/mL
[9] = MM:TM with ITRA, isolate 08-12-12-13 Cyp51 [TR34/L98H], Avg., 48 hours, 35° C.
[10] = MM:TM with ITRA, isolate 08-19-02-61 Cyp51 [TR34/L98H], Avg., 48 hours, 35° C.
[11] = MM:TM with ITRA, isolate 08-31-08-91 Cyp51 [TR34/L98H], Avg., 48 hours, 35° C.
[12] = MM:TM with ITRA, isolate 08-36-03-25 Cyp51 [TR34/L98H], Avg., 48 hours, 35° C.
[13] = MM:TM with ITRA, isolate 12-7505220 Cyp51 [TR34/L98H], Avg, 48 hours, 35° C.
[14] = MM:TM with ITRA, isolate 12-7505446 Cyp51 [TR34/L98H], Avg., 48 hours, 35° C.
[15] = MM:TM with ITRA, isolate D5 Cyp51 [G54E], Avg., 48 hours, 35° C.
[16] = MM:TM with ITRA, isolate D6 Cyp51 [G54V], Avg., 48 hours, 35° C.
[17] = MM:TM with ITRA, isolate D9 Cyp51 [M220K], Avg., 48 hours, 35° C.

Structure (SMILES): C[C@@H]1[C@H](O)[C@@H](C)/C=C/C=C/C=C/C=C/C=C/C=C/C=C/[C@H](O[C@@H]2O[C@H](C)[C@@H](O)[C@H](N)[C@@H]2O)C[C@@H]2O[C@](O)(C[C@@H](O)C[C@@H](O)[C@H](O)CC[C@@H](O)C[C@@H](O)CC(=O)O[C@H]1C)C[C@H](O)[C@H]2C(=O)O [AMB, amphotericin B]
- decrease of the MIC of AMB in combination with MM:TM (Cryptococcus neoformans; H99): > 10 fold
- MIC Combined (Cryptococcus neoformans; H99, AMB and MM:TM in combination, […]10^5 cells/mL, 30°C, OD600 48 h): 0.16 µM
- FIC (Cryptococcus neoformans; H99, Avg.): 0.05
- MIC alone (Cryptococcus neoformans; [1]): 3.1 µg/mL
- MIC combo (Cryptococcus neoformans; [1]): 0.15 µg/mL
- MIC alone (Cryptococcus neoformans; [2]): 3.1 µg/mL
- MIC combo (Cryptococcus neoformans; [2]): 0.2 µg/mL
- MIC alone (Cryptococcus neoformans; [3]): 3.1 µg/mL
- MIC combo (Cryptococcus neoformans; [3]): 0.1 µg/mL
- MIC alone (Cryptococcus neoformans; H99, single agent, […]10^5 cells/mL, 30°C, OD600 48 h): 3.4 µM
- FIC (Cryptococcus neoformans; H99, trial 1): 0.06
- FIC (Cryptococcus neoformans; H99, trial 2): 0.03
- MIC AMB alone (Cryptococcus neoformans; H99, AMB as single agent, OD600, 48 h, 30° C.): 3.4 µM
- MIC AMB combination (Cryptococcus neoformans; H99, AMB in combination with MM:TM, OD600, 48 h, 30° C.): 0.1 µM and 0.16 µM and 0.2 µM
- FICAMB (Cryptococcus neoformans; H99, AMB with MM:TM): 0.03 and 0.05 and 0.06
- FICAmp B (Cryptococcus neoformans; [4]): 0.09
- MIC Amp B alone (Cryptococcus neoformans; [4]): 1.6 µg/mL
- MIC Amp B in combination (Cryptococcus neoformans; [4]): 0.15 µg/mL
- MIC AMB alone (Cryptococcus neoformans; [5]): 3.1 µg/mL
- MIC AMB in combination (Cryptococcus neoformans; [5]): 0.1 µg/mL
- MIC Amp B alone (Cryptococcus neoformans; [6]): 1.6 µg/mL
- MIC Amp B in combination (Cryptococcus neoformans; [6]): 0.15 µg/mL

Structure (SMILES): CCC(C)n1ncn(-c2ccc(N3CCN(c4ccc(OCC5COC(Cn6cncn6)(c6ccc(Cl)cc6Cl)O5)cc4)CC3)cc2)c1=O (stereo not drawn) [Itraconazole, itraconazole]
- MIC (Aspergillus spp.): ~1 µM (≈ 0.706 µg/mL)
- MIC azole combination (Aspergillus fumigatus; 08-19-02-61 Cyp51 [TR34/L98H], ITRA in combination with MM:TM, OD600, 48 h, 35° C.): >48 µg/mL and 48 µg/mL
- FICazole (Aspergillus fumigatus; 08-19-02-61 Cyp51 [TR34/L98H], ITRA with MM:TM): 1.000 and 0.500
- MIC azole combination (Aspergillus fumigatus; 08-31-08-91 Cyp51 [TR34/L98H], ITRA in combination with MM:TM, OD600, 48 h, 35° C.): >48 µg/mL
- FICazole (Aspergillus fumigatus; 08-31-08-91 Cyp51 [TR34/L98H], ITRA with MM:TM): 1.000
- MIC azole combination (Aspergillus fumigatus; 08-36-03-25 Cyp51 [TR34/L98H], ITRA in combination with MM:TM, OD600, 48 h, 35° C.): >48 µg/mL
- FICazole (Aspergillus fumigatus; 08-36-03-25 Cyp51 [TR34/L98H], ITRA with MM:TM): 1.000
- FICazole (Aspergillus fumigatus; AF293, ITRA with MM:TM): 0.143 and 0.198 and 0.210
- MIC (Aspergillus fumigatus; 48 h, CEA10, ITRA as single agent, 35° C.): > 1 µg/mL
- MIC (Aspergillus fumigatus; 48 h, CEA10, MM:TM with Itraconazole, single agent, 48 h, read-out: MIC Alone): > 1.4 µM
- MIC (Aspergillus fumigatus; 48 h, F11628, ITRA as single agent, 35° C.): 48 µg/mL
- MIC (Aspergillus fumigatus; 48 h, F16216, ITRA as single agent, 35° C.): 32 µg/mL
- MIC (Aspergillus fumigatus; 48 h, MM:TM with ITRA, […], Avg., 48 hours, 35° C.): 1.06 µM
- MIC (Aspergillus fumigatus; [7]): 48 µg/mL
- MIC (Aspergillus fumigatus; [8]): 32 µg/mL
- MIC Combined (Aspergillus fumigatus; CEA10, MM:TM with Itraconazole in combination, 48 h): 0.3 µM
- MIC azole combination (Aspergillus fumigatus; D5 Cyp51 [G54E], ITRA in combination with MM:TM, OD600, 48 h, 35° C.): >48 µg/mL
- FICazole (Aspergillus fumigatus; D5 Cyp51 [G54E], ITRA with MM:TM): 1.000
- MIC azole combination (Aspergillus fumigatus; D7 Cyp51 [WT], ITRA in combination with MM:TM, OD600, 48 h, 35° C.): 0.19 µg/mL and 0.375 µg/mL
- FICazole (Aspergillus fumigatus; D7 Cyp51 [WT], ITRA with MM:TM): 0.253 and 0.500
- MIC azole combination (Aspergillus fumigatus; D9 Cyp51 [M220K], ITRA in combination with MM:TM, OD600, 48 h, 35° C.): >48 µg/mL
- FICazole (Aspergillus fumigatus; D9 Cyp51 [M220K], ITRA with MM:TM): 1.000
- MIC azole combination (Aspergillus fumigatus; F11628, ITRA in combination with MM:TM, OD600, 48 h, 35° C.): 1.06 µM
- MIC azole combination (Aspergillus fumigatus; F16216, ITRA in combination with MM:TM, OD600, 48 h, 35° C.): 85.03 µM
- FICazole (Aspergillus fumigatus; F16216, ITRA with MM:TM): 0.750 and 1.000 and 0.938
- MIC azole combination (Aspergillus fumigatus; MM:TM with ITRA, […], Avg., 48 hours, 35° C.): 0.4 µM
- FICazole (Aspergillus fumigatus; [9]): 0.917
- MIC azole combination (Aspergillus fumigatus; [9]): 70.15 µM
- FICazole (Aspergillus fumigatus; [10]): 0.75
- MIC azole combination (Aspergillus fumigatus; [10]): 102.04 µM
- FICazole (Aspergillus fumigatus; [11]): 1.000
- MIC azole combination (Aspergillus fumigatus; [11]): >68.02 µM
- FICazole (Aspergillus fumigatus; [12]): 1.000
- MIC azole combination (Aspergillus fumigatus; [12]): >68.02 µM
- FICazole (Aspergillus fumigatus; [13]): 0.917
- MIC azole combination (Aspergillus fumigatus; [13]): 70.15 µM
- FICazole (Aspergillus fumigatus; [14]): 0.035
- MIC azole combination (Aspergillus fumigatus; [14]): 0.67 µM
- FICazole (Aspergillus fumigatus; [15]): 1.000
- MIC azole combination (Aspergillus fumigatus; [15]): >68.02 µM
- FICazole (Aspergillus fumigatus; [16]): 0.172
- MIC azole combination (Aspergillus fumigatus; [16]): 18.96 µM
- FICazole (Aspergillus fumigatus; [17]): 1.000
- MIC azole combination (Aspergillus fumigatus; [17]): >68.02 µM
- FICazole (Aspergillus fumigatus; [7]): 0.008
- FICazole (Aspergillus fumigatus; [8]): 1.000
- increase in efficacy in the presence of MM:TM (Aspergillus fumigatus; azole-resistant strain F11628): > 100 fold
- MIC (Aspergillus species; Aspergillus aculeatus isolate CBS 172.66): < 1 µg/mL
- MIC (Aspergillus species; Aspergillus brasiliensis isolate CBS 101740): 64 µg/mL (≈ 90.7 µM)
- MIC (Aspergillus species; Aspergillus carbonarius isolate DT0115-B6): < 1 µg/mL
- MIC (Aspergillus species; Aspergillus clavatus isolate CBS 513.65): 64 µg/mL (≈ 90.7 µM)
- MIC (Aspergillus species; Aspergillus fumigatus isolate CEA10): < 1 µg/mL
- MIC (Aspergillus species; Aspergillus glaucus isolate CBS 516.65): 2 µg/mL (≈ 2.83 µM)
- MIC (Aspergillus species; Aspergillus nidulans isolate FGSCA4): < 1 µg/mL
- MIC (Aspergillus species; Aspergillus niger isolate CBS 113.46): < 1 µg/mL
- MIC (Aspergillus species; Aspergillus oryzae isolate Rib40): 1 µg/mL (≈ 1.42 µM)
- MIC (Aspergillus species; Aspergillus parasiticus isolate Su-1): < 1 µg/mL
- MIC (Aspergillus species; Aspergillus sydowii isolate CBS 593.65): 2 µg/mL (≈ 2.83 µM)
- MIC (Aspergillus species; Aspergillus terreus isolate NCCB IH2626): < 1 µg/mL
- MIC (Aspergillus species; Aspergillus versicolor isolate CBS 795.97): 1 µg/mL (≈ 1.42 µM)
- MIC (Aspergillus species; Aspergillus wentii isolate DT0136-E9): < 1 µg/mL
- MIC (Aspergillus species; Aspergillus zonatus isolate CBS 506.65): < 1 µg/mL
- MIC (Aspergillus species; Neosartorya fischeri isolate CBS 544.65): > 8 µg/mL
- MIC (Trichophyton rubrum): 1 µg/mL (≈ 1.42 µM)
- MIC (Microsporum canis): 1 µg/mL (≈ 1.42 µM)
- MIC (Trichophyton tonsurans): 0.13 µg/mL (≈ 0.184 µM)

Structure (SMILES): OC(Cn1cncn1)(Cn1cncn1)c1ccc(F)cc1F [FLC, fluconazole]
- MIC50 (C. auris; Candida auris B11220): 4 µg/mL (≈ 13.1 µM)
- MIC50 (C. auris; Candida auris C54039, Resistance AmB): 16 µg/mL (≈ 52.2 µM)
- MIC50 (Cryptococcus amylolentus; CBS6039, Cryptococcus amolyentous CBS 6039): 16 µg/mL (≈ 52.2 µM)
- MIC50 (Cryptococcus amylolentus; CBS6273, Cryptococcus amolyentous CBS 6273): 16 µg/mL (≈ 52.2 µM)
- MIC50 (Saccharomyces cerevisiae): < 1 µg/mL
